Data as given in article PMC4062444, “Mechanisms of U87 Astrocytoma Cell Uptake and Trafficking of Monomeric versus Protofibril Alzheimer’s Disease Amyloid-β Proteins” (PLoS ONE, 2014).
Structures can show the parent of a compound that is named as a salt.

Assays:
[1] = system: U87 human brain astrocytoma cell line; test: Uptake of HiLyte Fluor555-tagged Aβ42 peptides by U87 cells (confocal microscopy); type: cell-based; conditions: for reduction of oAβ42 uptake by U87 cells / reduction of sAβ42 uptake by U87 cells: inhibitor pretreatment (5 mM amiloride 30 min; 300 nM wortmannin 1 h; 1 mM MβCD 30 min), integrated intracellular fluorescence vs mock-treated cells, >25 cells in each of three experiments; for reduction of oAβ42 uptake by U87 cells: then 0.4 µM HiLyte Fluor555-oAβ42 2 h at 37°C; for reduction of sAβ42 uptake by U87 cells: then 0.4 µM HiLyte Fluor555-sAβ42 2 h at 37°C; for effect of Dyn 1 dominant-negative K44A mutant on uptake: U87 cells expressing GFP-tagged Dyn1 K44A, 0.4 µM peptide 2 h at 37°C
Protocol: U87 cells were seeded on coverslips and grown at 37°C overnight in complete medium. Uptake experiments were initiated by incubating cells at 37°C with 0.4 µM HiLyte Fluor555-tagged Aβ42 peptides for 2 h, which were diluted in imaging medium (α-MEM without phenol red supplemented with 20 mM HEPES, pH 7.4, and 5% FBS). Cells were subsequently washed three times with ice-cold PBS, fixed with 3.7% PFA for 20 min and stained with 1 µg/ml DAPI diluted in PBS containing 0.1% saponin for 15 min at room temperature. Then, cells were mounted with a mounting solution containing 50% glycerol and 50% PBS. For endocytosis inhibition experiments, cells were pretreated with various endocytotic inhibitors with indicated times followed by Aβ42 peptides uptake in the presence or absence of these inhibitors.
Briefly, in most cases, the integrated intracellular signals were determined from a 2D projection image of the fluorescence intensities of a Z-stack lacking the most bottom and top planes as they mostly contain plasma membrane signals. The cell outline in each plane was determined by increasing the brightness of the image. In some cases, bright field images were also taken to help identify the cell outlines. The integrated fluorescence within the cell was background-corrected by subtraction of the fluorescence signal surrounding the cell under analysis and its value was then normalized to the mean (average) of the control cells set to 100. For plain cells in the absence or presence of various pharmacological treatment, all intact cells in each image field were used for quantification of Aβ uptake; for cells transfected with plasmids, only the positively transfected cells were used for quantification of Aβ uptake, which was estimated from the EGFP signal in green channel.

[2] = system: U87 cells
Protocol: Cells maintained in the serum free medium without Aβ were used as negative control. Following addition of 20 µl MTS reagent into each well, plates were incubated at 37°C for 4 h. The formazan product was quantified by measuring absorbance at 490 nm with a Microplate Reader (Molecular Devices, Sunnyvale, CA, USA). All the experiments were repeated three times.

[3] = system: U87 cells; test: Localization of internalized Aβ42 within the endolysosomal system; type: cell-based, human; conditions: live-cell confocal; for fraction transported into early endosomes (EGFP-Rab5): U87 cells transfected with EGFP-Rab5, 0.4 µM peptide for 15 min, 30 min, 1 h or 2 h; for fraction localized to Lysotracker Green positive vesicles (lysosomes): U87 cells, 0.4 µM peptide for 30 min to 3 h, 50 nM LysoTracker Green
Protocol: The trafficking of fluro-tagged monomeric and oligomeric Aβ42 was measured as follows. To examine the localization in early endosomes, cells were transfected with EGFP-Rab5 plasmid to label early endosomes. 24 h after transfection, cells were treated with Aβ42 peptides for indicated time periods. After changing with the fresh imaging medium, live cell imaging was then taken using a confocal microscope with an objective heater (set at 37°C). To examine the localization of peptides in lysosomes, plain cells were first treated with Aβ42 peptides for indicated time periods, and 30 min before taking imaging, lysotracker Green were supplemented in the incubation medium (50 nM) to label lysosomes. Afterwards, fresh medium was changed and live cell imaging was taken.
Images were deconvolved using AutoQuant, a 50-pixel-wide rolling-ball subtraction algorithm was subsequently used to remove background noise. The sub-stacks of 3 sections spanning 0.4 µm were generated and imported to ImageJ for analysis. Manders’ coefficient was calculated using ImageJ plugin “JACop”. The percentage was scored as the Aβ puncta signals that are positive for EGFP-Rab5 or Lysotracker Green signals with respect to the total number of Aβ puncta.

[4] = ThT fluorescence assay; type: physicochemical; conditions: 10 µM ThT in deionized water, pH 7.4; ex 450 nm, em 482 nm; Aβ42 0 to 30 µM
Protocol: The assay was performed according to a standard protocol. A 200 µM aqueous Thioflavin T (ThT) was prepared and filtered through 0.22 µm filter. For measurement, Aβ42 samples (monomers or oligomers) were prepared in 10 µM ThT/deionized water solution, pH 7.4. Immediately after mixing, ThT fluorescence of samples was measured with the excitation wavelength at 450 nm and emission wavelength at 482 nm with 470 nm cut-off by a Microplate Reader (Molecular Devices, Sunnyvale, CA, USA).

[5] = system: U87 cells; remark: listed apart in the source
Protocol: Cells were incubated in fresh DMEM containing 0.4 µM fluro-tagged Aβ42 monomers or oligomers for 2 h. After extensively wash, cells were chased in fresh completed medium with indicated times up to 72 hours. Cells were subsequently fixed, stained with DAPI and mounted as described above. Images acquisition and analysis were performed as described below.
Estimation of the half-life and rate constants for degradation of Aβ42 peptides were made by fitting data using a single-phase exponential decay equation (Origin, ver. 6.0).

[6] = Transmission electron microscopy of oligomer preparation; type: physicochemical; conditions: TEM, 100 µM oAβ42, 1% uranyl acetate stain, 32,000×
Protocol: Aβ42 oligomers were applied to formvar-coated 300-mesh copper grids for 2 min and excess fluid was filtered off. The samples were then stained with 1% uranyl acetate for 1 min, excess fluid was filtered off and the grids were examined with H-8100 transmission electron microscope (Hitachi, Tokyo, Japan) operated at 150 KV and 32,000× magnification.

[7] = system: astrocytic U87 cells; conditions: 20 µM Aβ, cited from earlier work
Description: We assumed that U87 cells tolerated the toxic effects of Aβ42 species better than the neurons, particularly because we used relatively low concentrations of Aβ peptides, which could be rapidly cleared by U87 cells and produced negligible cellular toxicity. This property assigns a neuronal protection role to astrocytes because they can promptly clear Aβ ...

Molecule: N=C(N)NC(=O)c1nc(Cl)c(N)nc1N [amiloride, Amiloride hydrochloride hydrate]
- reduction of oAβ42 uptake by U87 cells [1]: 92%
- reduction of sAβ42 uptake by U87 cells [1]: 61%

Molecule: oAβ42: protofibril, an oligomeric assembly of Aβ42 prepared from sAβ42 at pH 2.0, 37°C, 24 h
- U87 cell growth / viability [2]: not inhibited
- fraction transported into early endosomes (EGFP-Rab5) [3]: low fraction
- fraction localized to Lysotracker Green positive vesicles (lysosomes) [3]: increased with prolonged Aβ42 treating time
- ThT fluorescence after titration with Aβ42 solution [4]: increased in a nearly linear-manner
- half-time (t0.5) of degradation in U87 cells [5]: 8.31 h
- average length of oligomers on electron micrographs [6]: < 150 nm
- diameter of oligomers on electron micrographs [6]: approximately 5 nm
- effect of Dyn 1 dominant-negative K44A mutant on uptake [1]: no effect

Molecule: Methyl-β-cyclodextrin [MβCD]
- reduction of oAβ42 uptake by U87 cells [1]: 48%
- reduction of sAβ42 uptake by U87 cells [1]: 46%

Molecule: COC[C@H]1OC(=O)c2coc3c2[C@@]1(C)C1=C(C3=O)[C@@H]2CCC(=O)[C@@]2(C)C[C@H]1OC(C)=O [wortmannin]
- reduction of oAβ42 uptake by U87 cells [1]: 37%
- reduction of sAβ42 uptake by U87 cells [1]: 55%

Molecule: O=C(N/N=C/c1ccc(O)c(O)c1)c1cc2ccccc2cc1O [Dynasore]
- oAβ42 entry after Dynasore treatment ([1]; Dynasore pretreatment, then oAβ42 2 h at 37°C, confocal microscopy): almost entirely blocked
- internalization of sAβ42 after Dynasore treatment ([1]; Dynasore pretreatment, then sAβ42 2 h at 37°C, confocal microscopy): strongly blocked

Molecule: Aβ: Aβ used by Wang et al. (ref 36, amyloid-beta1–42) on U87 cells
- viability of U87 cells ([7]; autophagic cell death): did decrease
- apoptosis of U87 cells [7]: not induced to undergo apoptosis

Molecule: sAβ42: soluble monomeric HiLyte Fluor555-labeled Aβ42 (Anaspec) dissolved in 0.1% NH4OH
- U87 cell growth / viability [2]: not inhibited
- fraction transported into early endosomes (EGFP-Rab5) [3]: low fraction
- fraction localized to Lysotracker Green positive vesicles (lysosomes) [3]: increased with prolonged Aβ42 treating time
- ThT fluorescence after titration with Aβ42 solution [4]: basal fluorescence level
- half-time (t0.5) of degradation in U87 cells [5]: 2.68 h
- effect of Dyn 1 dominant-negative K44A mutant on uptake [1]: no effect
